Measured values: patent US10307413B2, “Tetrahydro- and dihydro-isoquinoline PRMT5 inhibitors and uses thereof” (Epizyme, Inc., priority 2013, dated 2019)
pEC50, pIC50: −log10 of the molar value. Like-named read-outs stand apart in the source and are kept apart here.

Experiments:
[1] = molecular target: PRMT5/MEP50 (Homo sapiens (Human), UniProt O14744); test: PRMT5 Biochemical Assay (PRMT5/MEP50 enzyme assay on peptide substrate, 3H-SAM Flashplate)
Description: S-adenosylmethionine (SAM), S-adenosylhomocysteine (SAH), bicine, KCl, Tween20, dimethylsulfoxide (DMSO), bovine skin gelatin (BSG), and Tris(2-carboxyethyl)phosphine hydrochloride solution (TCEP) were purchased from Sigma-Aldrich at the highest level of purity possible. ^3H-SAM was purchase from American Radiolabeled Chemicals with a specific activity of 80 Ci/mmol. 384-well streptavidin Flashplates were purchased from PerkinElmer.
Peptide representative of human histone H4 residues 1-15 was synthesized with a C-terminal linker-affinity tag motif and a C-terminal amide cap by 21st Century Biochemicals.
The amplified genes were sublconed into pENTR/D/TEV (Life Technologies) and subsequently transferred by Gateway™ attL×attR recombination to pDEST8 baculovirus expression vector (Life Technologies).
Protein over-expression was accomplished by infecting exponentially growing Spodoptera frugiperda (SF9) cell culture at 1.2×10^6 cell/ml with a 5000 fold dilution of BIIC stock. Infections were carried out at 27° C. for 72 hours, harvested by centrifugation, and stored at −80° C. for purification.
Flag-PRMT5/6His-MeP50 was eluted with 300 mM Imidazole in the same buffer.
General Procedure for PRMT5/MEP50 Enzyme Assays on Peptide Substrates.
The assays were all performed in a buffer consisting of 20 mM Bicine (pH=7.6), 1 mM TCEP, 0.005% BSG, and 0.002% Tween20, prepared on the day of use. […] DMSO (1 ul) was added to Columns 11, 12, 23, 24, rows A-H for the maximum signal control and 1 ul of SAH, a known product and inhibitor of PRMT5/MEP50, was added to columns 11, 12, 23, 24, rows I-P for the minimum signal control. A cocktail (40 ul) containing the PRMT5/MEP50 enzyme and the peptide was added by Multidrop Combi (Thermo-Fisher). The compounds were allowed to incubate with PRMT5/MEP50 for 30 min at 25 degrees Celsius, then a cocktail (10 ul) containing ^3H-SAM was added to initiate the reaction (final volume=51 ul). […] The assays were stopped by the addition of non-radioactive SAM (10 ul) to a final concentration of 600 uM, which dilutes the ^3H-SAM to a level where its incorporation into the peptide substrate is no longer detectable. 50 ul of the reaction in the 384-well polypropylene plate was then transferred to a 384-well Flashplate and the biotinylated peptides were allowed to bind to the streptavidin surface for at least 1 hour before being washed three times with 0.1% Tween20 in a Biotek ELx405 plate washer. The plates were then read in a PerkinElmer TopCount plate reader to measure the quantity of ^3H-labeled peptide bound to the Flashplate surface, measured as disintegrations per minute (dpm) or alternatively, referred to as counts per minute (cpm).
[formula] [formula] Where dpm=disintegrations per minute, cmpd=signal in assay well, and min and max are the respective minimum and maximum signal controls.
[formula] [formula] Where top and bottom are the normally allowed to float, but may be fixed at 100 or 0 respectively in a 3-parameter fit. The Hill Coefficient normally allowed to float but may also be fixed at 1 in a 3-parameter fit. Y is the % inhibition and X is the compound concentration.

[2] = tested on: symmetric di-methyl arginine in Z-138 cells; test: Z-138 Methylation Assay (In Cell Western for symmetric di-methyl arginine and DNA content); type: cell-based; details: Homo sapiens, read-out: ICW EC50
How it was run: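 Z-138 cells (50,000 cells/mL) treated with compound 96 h at 37 °C, then fixed and stained for symmetric di-methyl arginine (800 nm) with DRAQ5 DNA counterstain (700 nm) on Licor Odyssey.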

[3] = tested on: Z-138 cell line; test: Z-138 Proliferation Assay (Cell Titer Glo, 5 days); type: cell-based; details: Homo sapiens, 120 h, Z-138 cells, 5 days, read-out: Proliferation EC50
How it was run: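 Z-138 cells exposed 5 days at 37 °C, 5% CO2 to nine-point 3-fold dilutions (final top 20 μM, 0.2% DMSO), in triplicate. Viability read as ATP by CellTiter-Glo luminescence; IC50 from 4-parameter fit of normalized dose-response curves.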

Sequence of PRMT5/MEP50 (O14744 other isoform, or with tags, fused parts or gaps): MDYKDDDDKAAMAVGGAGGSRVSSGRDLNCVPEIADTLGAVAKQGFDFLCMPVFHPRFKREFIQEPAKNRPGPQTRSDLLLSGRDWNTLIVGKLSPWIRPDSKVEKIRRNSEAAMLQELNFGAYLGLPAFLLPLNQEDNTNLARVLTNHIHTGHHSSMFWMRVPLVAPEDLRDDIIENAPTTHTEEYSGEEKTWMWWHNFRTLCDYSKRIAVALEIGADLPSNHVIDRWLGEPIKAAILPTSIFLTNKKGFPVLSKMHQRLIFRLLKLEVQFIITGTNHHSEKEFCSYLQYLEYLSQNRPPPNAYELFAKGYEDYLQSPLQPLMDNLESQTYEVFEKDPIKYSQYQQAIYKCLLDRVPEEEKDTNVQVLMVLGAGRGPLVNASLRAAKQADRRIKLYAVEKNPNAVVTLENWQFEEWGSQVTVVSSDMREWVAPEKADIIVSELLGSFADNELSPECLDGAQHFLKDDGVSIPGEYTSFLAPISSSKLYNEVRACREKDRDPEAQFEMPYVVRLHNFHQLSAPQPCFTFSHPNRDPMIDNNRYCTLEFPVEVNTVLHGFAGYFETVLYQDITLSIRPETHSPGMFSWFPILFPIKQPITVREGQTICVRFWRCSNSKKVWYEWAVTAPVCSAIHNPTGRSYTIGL
Sequence of PRMT5/MEP50 (Q9BQA1 other isoform, or with tags, fused parts or gaps partner): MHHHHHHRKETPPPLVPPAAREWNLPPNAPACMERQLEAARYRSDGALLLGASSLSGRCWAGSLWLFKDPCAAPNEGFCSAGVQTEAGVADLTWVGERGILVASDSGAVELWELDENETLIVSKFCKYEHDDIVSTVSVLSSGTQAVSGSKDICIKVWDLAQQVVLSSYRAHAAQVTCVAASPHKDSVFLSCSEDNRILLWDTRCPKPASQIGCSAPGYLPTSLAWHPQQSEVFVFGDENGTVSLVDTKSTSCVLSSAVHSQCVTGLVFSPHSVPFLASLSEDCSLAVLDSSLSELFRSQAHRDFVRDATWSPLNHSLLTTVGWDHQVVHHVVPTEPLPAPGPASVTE

Row | pIC50 ([1]; PRMT5 biochemical assay) | pEC50 ([2]; In Cell Western methylation) | pIC50 [1] | SMILES | pEC50 ([3]; Cell Titer Glo) | further results
1 | > 7.00 | > 7.00 | – | C[C@H](N1CC(Nc2cc(C(=O)NC[C@H](O)CN3CCc4ccccc4C3)ncn2)C1)C(F)(F)F [Compound 445] | 5.00 to 6.00 | –
2 | > 7.00 | < 6.00 | – | Cc1cnc(NC2CN(C)C2)cc1C(=O)NC[C@H](O)CN1CCc2ccccc2C1 [Compound 403] | < 4.70 | –
3 | > 7.00 | > 7.00 | – | CCN1CCN(c2nc(NC3COC3)cc(C(=O)NC[C@H](O)CN3CCc4ccccc4C3)n2)CC1 [Compound 477] | > 7.00 | –
4 | > 7.00 | > 7.00 | – | O=C(NC[C@H](O)CN1CCc2ccccc2C1)c1cc(N[C@H]2C[C@@H](O)C2)ncn1 [Compound 491] | 6.00 to 7.00 | –
5 | > 7.00 | > 7.00 | – | CC(=O)N1CCC(Nc2ccnc(C(=O)NC[C@H](O)CN3CCc4ccccc4C3)c2)CC1 [Compound 551] | > 7.00 | –
6 | 6.00 to 7.00 | – | – | CC(=O)N1CC(Nc2cc(C(=O)NCC(N)CN3CCc4ccccc4C3)ncn2)C1 (centres unmarked) [Compound 699] | – | –
7 | > 7.00 | > 7.00 | – | O=C(NC[C@H](O)CN1CCc2ccccc2C1)c1ccnc(NC2CCN(C(=O)C3CC3)CC2)c1 [Compound 472] | > 7.00 | –
8 | – | – | 6.00 to 7.00 | NS(=O)(=O)c1cccc(C(=O)NCC(O)CN2CCc3ccccc3C2)c1 (centres unmarked) [Compound 32] | – | pEC50 [2]: 6.00 to 7.00; pEC50 [3]: < 4.70
9 | > 7.00 | > 7.00 | – | COCCN1CC(Nc2ccnc(C(=O)NC[C@H](O)CN3CCc4ccccc4C3)c2)C1 [Compound 576] | 5.00 to 6.00 | –
10 | > 7.00 | > 7.00 | – | O=C(NC[C@H](O)CN1CCc2ccccc2C1)c1ncnc(NC2COC2)c1F [Compound 422] | 5.00 to 6.00 | –
11 | 6.00 to 7.00 | 6.00 to 7.00 | – | Cc1ccc2c(c1)CCN(C[C@@H](O)CNC(=O)c1cc(NC3COC3)ncn1)C2 [Compound 681] | < 5.30 | –
12 | – | – | 6.00 to 7.00 | CS(=O)(=O)Nc1ccc(C(=O)NCC(O)CN2CCc3ccccc3C2)cc1 (centres unmarked) [Compound 31] | – | pEC50 [2]: 6.00 to 7.00; pEC50 [3]: 4.30 to 5.00
13 | 6.00 to 7.00 | 6.00 to 7.00 | – | CC(O)(CNC(=O)c1cc(NC2COC2)ncn1)CN1CCc2ccccc2C1 (centres unmarked) [Compound 646] | < 4.70 | –
14 | > 7.00 | > 7.00 | – | O=C(NC[C@H](O)CN1CCc2ccccc2C1)c1cc(NC2CN(C(=O)C3CC3)C2)ncn1 [Compound 425] | > 7.00 | –
15 | – | – | > 7.00 | O=C(NC[C@H](O)CN1CCc2ccccc2C1)c1ccc(OCCN2CCC2)cc1 [Compound 388] | – | pEC50 [2]: > 7.00; pEC50 [3]: 5.00 to 6.00
16 | > 7.00 | > 7.00 | – | CC(C)(C)C(=O)N1CC(Nc2cc(C(=O)NC[C@H](O)CN3CCc4ccccc4C3)ncn2)C1 [Compound 424] | 6.00 to 7.00 | –
17 | > 7.00 | > 7.00 | – | O=C(NC[C@H](O)CN1CCc2ccccc2C1)c1cc(NC2COC2)nc(C(F)(F)F)n1 [Compound 405] | 6.00 to 7.00 | –
18 | – | – | > 7.00 | O=C(NC[C@H](O)CN1CCc2ccccc2C1)c1cccc2ccccc12 [Compound 295] | – | pEC50 [2]: > 7.00; pEC50 [3]: 5.00 to 6.00
19 | – | – | 6.00 to 7.00 | CN(c1cccc(C(=O)NCC(O)CN2CCc3ccccc3C2)c1)C1CCOCC1 (centres unmarked) [Compound 49, N-(3-(3,4-dihydroisoquinolin-2(1H)-yl)-2-hydroxypropyl)-3-(methyl(tetrahydro-2H-pyran-4-yl)amino)benzamide] | – | –
20 | > 7.00 | – | – | CCC(=O)N1CCC(Nc2cc(C(=O)NC[C@H](O)CN3CCc4ccccc4C3)ccn2)CC1 [Compound 454] | > 7.00 | –
21 | – | – | 6.00 to 7.00 | O=C(NCC(O)CN1CCc2ccccc2C1)c1cccc(CN2CCOCC2)c1 (centres unmarked) [Compound 51, N-(3-(3,4-dihydroisoquinolin-2(1H)-yl)-2-hydroxypropyl)-3-(morpholinomethyl)benzamide] | – | –

Row | pIC50 ([1]; PRMT5 biochemical assay) | pEC50 ([2]; In Cell Western methylation) | pIC50 [1] | SMILES | pEC50 ([3]; Cell Titer Glo) | further results
22 | – | – | 5.00 to 6.00 | COc1c(NC2COC2)ncnc1C(=O)NC[C@H](O)CN1CCc2ccccc2C1 [Compound 338] | – | –
23 | – | – | 6.00 to 7.00 | O=C(NCC(O)CN1CCc2ccccc2C1)c1cc(NC2CCOCC2)ccc1F (centres unmarked) [Compound 57, N-(3-(3,4-dihydroisoquinolin-2(1H)-yl)-2-hydroxypropyl)-2-fluoro-5-((tetrahydro-2H-pyran-4-yl)amino)benzamide] | – | –
24 | – | – | 5.00 to 6.00 | O=C(NCC(O)CN1CCc2ccccc2C1)c1cccc(C(=O)N2CCOCC2)c1 (centres unmarked) [Compound 46, N-(3-(3,4-dihydroisoquinolin-2(1H)-yl)-2-hydroxypropyl)-3-(morpholine-4-carbonyl)benzamide] | – | –
25 | – | – | 5.00 to 6.00 | NS(=O)(=O)c1ccccc1C(=O)NCC(O)CN1CCc2ccccc2C1 (centres unmarked) [Compound 33] | – | –
26 | 6.00 to 7.00 | – | – | NC1=NC(C(=O)NC[C@H](O)CN2CCc3ccccc3C2)=CC2=NC(CO)CN12 (some centres unmarked) [Compound 625] | < 5.30 | –
27 | 5.00 to 6.00 | < 6.00 | – | O=C(NCC(F)CN1CCc2ccccc2C1)c1cc(NC2COC2)ncn1 (centres unmarked) [Compound 697] | – | –
28 | – | – | 6.00 to 7.00 | CCN(c1cccc(C(=O)NCC(O)CN2CCc3ccccc3C2)c1)C1CCOCC1 (centres unmarked) [Compound 47] | – | pEC50 [2]: 6.00 to 7.00
29 | 6.00 to 7.00 | – | – | CC(=O)N1CCC(Nc2cc(C(=O)NCC(N)CN3CCc4ccccc4C3)ncn2)CC1 (centres unmarked) [Compound 701] | – | –
30 | < 5.00 | < 6.00 | – | CC(=O)N1CCC(Nc2cc(C(=O)NC[C@H](O)CN3Cc4ccccc4C(O)C3)ccn2)CC1 (some centres unmarked) [Compound 680] | – | –
31 | 5.00 to 6.00 | < 6.00 | – | CC(NC(=O)c1cc(NC2COC2)ncn1)[C@H](O)CN1CCc2ccccc2C1 (some centres unmarked) [Compound 493] | – | –
32 | 5.00 to 6.00 | 6.00 to 7.00 | – | CC(=O)N1CCC(Nc2cc(C(=O)NC[C@H](O)CN3Cc4ccccc4CC3C)ccn2)CC1 (some centres unmarked) [Compound 696] | – | –
33 | – | – | 6.00 to 7.00 | O=C(NCC(O)CN1CCc2ccccc2C1)c1cccc(NC2COC2)c1 (centres unmarked) [Compound 50, N-(3-(3,4-dihydroisoquinolin-2(1H)-yl)-2-hydroxypropyl)-3-(oxetan-3-ylamino)benzamide] | – | –
34 | – | – | 6.00 to 7.00 | O=C(NCC(O)CN1CCc2ccccc2C1)c1cccc(OC2CCOCC2)c1 (centres unmarked) [Compound 48] | – | pEC50 [2]: 6.00 to 7.00
35 | – | – | 6.00 to 7.00 | COc1cc(NC2CCOCC2)cc(C(=O)NCC(O)CN2CCc3ccccc3C2)c1 (centres unmarked) [Compound 56] | – | –
36 | < 5.00 | < 6.00 | – | CC(=O)N1CCC(Nc2cc(C(=O)NC[C@H](O)CN3Cc4ccccc4C(C)C3)ccn2)CC1 (some centres unmarked) [Compound 695] | – | –
37 | > 7.00 | – | – | CN(C)C(=O)CN1CC(Nc2cc(C(=O)NC[C@H](O)CN3CCc4ccccc4C3)ncn2)C1 [Compound 623] | 4.30 to 5.00 | –
38 | – | – | 6.00 to 7.00 | CC1(C)CC(Nc2cccc(C(=O)NCC(O)CN3CCc4ccccc4C3)c2)CCO1 (centres unmarked) [Compound 53, N-(3-(3,4-dihydroisoquinolin-2(1H)-yl)-2-hydroxypropyl)-3-((2,2-dimethyltetrahydro-2H-pyran-4-yl)amino)benzamide] | – | –
39 | > 7.00 | – | – | O=C(NC[C@H](O)CN1CCc2ccccc2C1)c1ccnc(NC2CCN(C(=O)C3CCC3)CC2)c1 [Compound 455] | > 7.00 | –
40 | – | – | 5.00 to 6.00 | CS(=O)(=O)Nc1ccccc1C(=O)NCC(O)CN1CCc2ccccc2C1 (centres unmarked) [Compound 27] | – | –
41 | – | – | 6.00 to 7.00 | CC(Nc1cccc(C(=O)NCC(O)CN2CCc3ccccc3C2)c1)C1CCOCC1 (centres unmarked) [Compound 52, N-(3-(3,4-dihydroisoquinolin-2(1H)-yl)-2-hydroxypropyl)-3-((1-(tetrahydro-2H-pyran-4-yl)ethyl)amino)benzamide] | – | –
